Results as given in publication PMC8456958, “Selective Bacterial Targeting and Infection‐Triggered Release of Antibiotic Colistin Conjugates” (Angewandte Chemie (International Ed. in English), 2021).
Positions of bridges follow the written chain, without caps; N, C: chain ends. Non-standard residues stand in square brackets, D forms with d. Residues, ends and D or L forms follow the SMILES beside them. *: point of attachment. Heptanoyl(6-Me) = CC(C)CCCCC(=O)*; Dab = NCC[C@H](N)C(=O)O

Columns and labels:
[1] = test system: E. coli K12; experiment: Infection assay in human plasma (CFU test, PMN/E. coli co-culture); format: cell-based, Escherichia coli; details: 10 μM, human blood plasma, bacteria:PMN 16:1, 1 h, 37 °C
Description: (§1) Figure 5 Cellular proof of concept for triggered antibiotic release from 6. a) Release of neutrophil elastase (NE) from neutrophil granulocytes. PMN were isolated and suspended in RPMI 1640. For activation, 0.1 μM fMLP was added. The samples were incubated for 1 h at 37 °C, centrifuged to remove cells, and the NE concentration was determined in the supernatant by ELISA. Values normalized to 1×10^6 cells mL^−1. Data are presented as the mean of 4 separate experiments. *p<0.03 compared to unactivated. b) Activity of NE after co‐cultivation of PMN with E. coli K12 in presence of 1 or 6. […] After 1 h colistin concentrations were determined by HPLC–MS. […]
(§2) Calculation of results: All samples and standards were measured in duplicate. The standard curve was constructed by plotting the mean absorbance for each standard on the y-axis against the concentration on the x-axis. A linear regression analysis was performed and the results for the samples were calculated. […]
(§3) on. […] The plate was incubated in a microplate reader for 60 min at 37 °C with shaking for 5 sec at 50 rpm once per minute.
(§4) Every minute readings were taken at 410 nm. For the calculation of the cleavage velocity, the difference in absorbance after an initialization phase at 15 min and a further incubation time of 30 min was used and related to total cleavage of the substrate. The blank was subtracted from the readings. […]

[2] = target: T1, neutrophil elastase (NE) (Homo sapiens, UniProt P08246); experiment: Activity of NE in co-cultivation of PMN with E. coli K12 (MeOSuc-AAPV-pNA cleavage); format: cell-based; details: 10 μM; PMN co-cultivated with E. coli K12, 1 h, 37 °C, RPMI 1640/HEPES-NaCl 1:1; mean of two experiments
T1 construct: Activity of NE after co‐cultivation of PMN with E. coli K12 in presence of 1 or 6; endogenous in cells; host or cells: primary human PMN isolated from fresh venous whole blood of healthy volunteers, co-cultivated with E. coli K12
T1 sequence (P08246 30-267): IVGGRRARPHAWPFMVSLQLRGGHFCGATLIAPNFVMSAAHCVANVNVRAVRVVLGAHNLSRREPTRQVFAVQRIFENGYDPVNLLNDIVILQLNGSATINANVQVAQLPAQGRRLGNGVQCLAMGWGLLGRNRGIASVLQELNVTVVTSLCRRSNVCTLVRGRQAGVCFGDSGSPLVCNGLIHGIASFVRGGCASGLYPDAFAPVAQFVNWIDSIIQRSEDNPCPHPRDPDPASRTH
Description: as §1, §2, §3, §4

Compound: CC(C)CCCCC(=O)N[C@@H](CCN)C(=O)N[C@H](C(=O)N[C@@H](CCN)C(=O)N[C@H]1CCNC(=O)[C@H]([C@@H](C)O)NC(=O)[C@H](CCN)NC(=O)[C@H](CCN)NC(=O)[C@H](CC(C)C)NC(=O)[C@@H](CC(C)C)NC(=O)[C@H](CCN)NC1=O)[C@@H](C)O [Compound 1, colistin B, reference compound] ({Heptanoyl(6-Me)}-[Dab]T[Dab][Dab][Dab][dL]L[Dab][Dab]T; lactam 4-C)
- effect on bacterial growth [1]: abolished growth completely
- enhancing effect on the activity of NE [2]: 2.3–2.5 fold
